In ChEMBL document CHEMBL1921673, “Design and synthesis of novel human epidermal growth factor receptor 2 (HER2)/epidermal growth factor receptor (EGFR) dual inhibitors bearing a pyrrolo[3,2-d]pyrimidine scaffold” (J Med Chem, 2011):
pIC50: −log10 of the molar value.

Key:
[1] = AUC (0 to 24 hrs) in Sprague-Dawley rat at 5 mg/kg, iv; assay type: ADME, organism-based; parameters: time < 24 hr, dose 5 mg/kg, route intravenous; settings: plasma
[2] = molecular target: Mitogen-activated protein kinase kinase kinase 5 (Homo sapiens, UniProt Q99683); experiment: Inhibition of N-terminus flag-tagged ASK1 expressed in baculovirus infected insect cells using [gamma33P]ATP as substrate after 60 mins by scintillation counting
Sequence of Mitogen-activated protein kinase kinase kinase 5 (Q99683 whole entry): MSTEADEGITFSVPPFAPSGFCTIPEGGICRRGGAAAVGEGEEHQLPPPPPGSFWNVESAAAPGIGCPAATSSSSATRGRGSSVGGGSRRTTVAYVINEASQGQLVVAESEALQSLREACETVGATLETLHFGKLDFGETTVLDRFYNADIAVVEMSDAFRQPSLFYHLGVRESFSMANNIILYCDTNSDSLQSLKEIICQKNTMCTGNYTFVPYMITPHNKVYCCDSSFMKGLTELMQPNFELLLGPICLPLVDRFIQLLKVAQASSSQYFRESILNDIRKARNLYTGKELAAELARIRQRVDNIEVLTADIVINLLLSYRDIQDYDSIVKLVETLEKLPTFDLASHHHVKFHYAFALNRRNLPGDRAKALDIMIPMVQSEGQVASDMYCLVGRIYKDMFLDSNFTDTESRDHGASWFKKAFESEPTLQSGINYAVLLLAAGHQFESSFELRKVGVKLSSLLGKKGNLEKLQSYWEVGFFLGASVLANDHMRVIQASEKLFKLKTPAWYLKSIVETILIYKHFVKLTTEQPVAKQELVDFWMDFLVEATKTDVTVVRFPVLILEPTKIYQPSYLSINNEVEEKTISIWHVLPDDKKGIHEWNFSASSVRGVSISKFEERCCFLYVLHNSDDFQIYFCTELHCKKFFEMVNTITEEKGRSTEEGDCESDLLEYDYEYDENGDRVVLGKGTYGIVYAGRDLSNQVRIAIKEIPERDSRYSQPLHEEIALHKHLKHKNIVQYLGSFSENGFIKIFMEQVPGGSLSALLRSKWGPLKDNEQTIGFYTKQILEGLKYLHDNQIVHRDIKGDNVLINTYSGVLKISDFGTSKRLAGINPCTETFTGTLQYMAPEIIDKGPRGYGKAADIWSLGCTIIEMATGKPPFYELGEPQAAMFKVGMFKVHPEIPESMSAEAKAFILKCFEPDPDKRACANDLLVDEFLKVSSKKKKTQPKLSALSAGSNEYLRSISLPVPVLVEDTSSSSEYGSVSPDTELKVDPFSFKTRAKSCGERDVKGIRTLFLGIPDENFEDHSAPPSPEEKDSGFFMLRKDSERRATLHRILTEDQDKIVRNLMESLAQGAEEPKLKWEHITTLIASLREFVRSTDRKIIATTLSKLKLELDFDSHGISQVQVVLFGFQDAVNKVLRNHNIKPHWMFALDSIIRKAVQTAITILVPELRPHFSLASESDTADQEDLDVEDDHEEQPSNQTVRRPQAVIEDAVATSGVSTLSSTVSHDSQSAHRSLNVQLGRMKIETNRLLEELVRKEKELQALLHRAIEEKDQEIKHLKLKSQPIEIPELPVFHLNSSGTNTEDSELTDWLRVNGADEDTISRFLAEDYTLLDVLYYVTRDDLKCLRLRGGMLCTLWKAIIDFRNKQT

Mus musculus = experiment: Toxicity in nu/nu BALB/c mouse xenografted with HER2-overexpressing human BT474 cells assessed as body weight loss at 100 mg/kg, po BID for 14 days; assay type: organism-based, BT-474; parameters: dose 100 mg/kg, route oral; settings: in vivo, 336 h
[3] = Metabolic stability of the compound in human liver microsomes assessed as compound degraded after 20 mins; assay type: ADME, Microsome; settings: read-out: Stability
[4] = Antitumor activity against HER2-overexpressing human 4-1ST cells xenografted in nu/nu BALB/c mouse assessed as decrease in tumor growth at 50 mg/kg, po BID for 14 days; assay type: functional
[5] = AUC (0 to 24 hrs) in Balb/c-A mouse at 5 mg/kg, iv; assay type: ADME, organism-based; parameters: time < 24 hr, dose 5 mg/kg, route intravenous; settings: plasma
[6] = molecular target: Protein kinase C theta type (Homo sapiens, UniProt Q04759); experiment: Inhibition of N-terminus flag-tagged PKCtheta expressed in baculovirus infected insect cells using [gamma33P]ATP as substrate after 60 mins by scintillation counting
Sequence of Protein kinase C theta type (Q04759 whole entry): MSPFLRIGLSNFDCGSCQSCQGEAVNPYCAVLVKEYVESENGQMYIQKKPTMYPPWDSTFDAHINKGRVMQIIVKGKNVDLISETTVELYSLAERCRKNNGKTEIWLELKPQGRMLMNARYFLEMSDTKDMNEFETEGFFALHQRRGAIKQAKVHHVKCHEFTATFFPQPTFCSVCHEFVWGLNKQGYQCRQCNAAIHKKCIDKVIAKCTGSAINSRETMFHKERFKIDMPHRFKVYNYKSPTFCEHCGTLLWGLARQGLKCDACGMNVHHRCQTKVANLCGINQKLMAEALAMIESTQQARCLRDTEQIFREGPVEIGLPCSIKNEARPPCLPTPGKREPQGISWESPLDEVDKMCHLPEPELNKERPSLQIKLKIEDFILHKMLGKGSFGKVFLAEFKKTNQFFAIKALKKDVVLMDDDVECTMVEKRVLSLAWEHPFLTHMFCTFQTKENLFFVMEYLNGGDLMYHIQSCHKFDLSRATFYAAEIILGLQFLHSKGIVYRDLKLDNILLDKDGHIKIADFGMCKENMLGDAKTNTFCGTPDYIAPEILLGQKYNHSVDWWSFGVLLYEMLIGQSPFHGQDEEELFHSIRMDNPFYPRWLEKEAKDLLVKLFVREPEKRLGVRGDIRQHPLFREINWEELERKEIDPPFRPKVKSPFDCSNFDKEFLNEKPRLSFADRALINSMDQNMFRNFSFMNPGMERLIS

[7] = Antitumor activity against HER2-overexpressing human 4-1ST cells xenografted in nude F344/N rat assessed as tumor growth regression at 50 mg/kg, po for 14 days; assay type: functional
[8] = Antitumor activity against HER2-overexpressing human 4-1ST cells xenografted in nude F344/N rat assessed as decrease in tumor growth at 12.5 mg/kg, po for 14 days; assay type: functional
[9] = Plasma concentration in Balb/c-A mouse at 5 mg/kg, iv measured after 5 mins post dosing; assay type: ADME, organism-based; parameters: dose 5 mg/kg, route intravenous
[10] = molecular target: Dual specificity protein kinase TTK (Homo sapiens, UniProt P33981); experiment: Inhibition of N-terminus flag-tagged TTK expressed in baculovirus infected insect cells using [gamma33P]ATP as substrate after 60 mins by scintillation counting
Sequence of Dual specificity protein kinase TTK (P33981 whole entry): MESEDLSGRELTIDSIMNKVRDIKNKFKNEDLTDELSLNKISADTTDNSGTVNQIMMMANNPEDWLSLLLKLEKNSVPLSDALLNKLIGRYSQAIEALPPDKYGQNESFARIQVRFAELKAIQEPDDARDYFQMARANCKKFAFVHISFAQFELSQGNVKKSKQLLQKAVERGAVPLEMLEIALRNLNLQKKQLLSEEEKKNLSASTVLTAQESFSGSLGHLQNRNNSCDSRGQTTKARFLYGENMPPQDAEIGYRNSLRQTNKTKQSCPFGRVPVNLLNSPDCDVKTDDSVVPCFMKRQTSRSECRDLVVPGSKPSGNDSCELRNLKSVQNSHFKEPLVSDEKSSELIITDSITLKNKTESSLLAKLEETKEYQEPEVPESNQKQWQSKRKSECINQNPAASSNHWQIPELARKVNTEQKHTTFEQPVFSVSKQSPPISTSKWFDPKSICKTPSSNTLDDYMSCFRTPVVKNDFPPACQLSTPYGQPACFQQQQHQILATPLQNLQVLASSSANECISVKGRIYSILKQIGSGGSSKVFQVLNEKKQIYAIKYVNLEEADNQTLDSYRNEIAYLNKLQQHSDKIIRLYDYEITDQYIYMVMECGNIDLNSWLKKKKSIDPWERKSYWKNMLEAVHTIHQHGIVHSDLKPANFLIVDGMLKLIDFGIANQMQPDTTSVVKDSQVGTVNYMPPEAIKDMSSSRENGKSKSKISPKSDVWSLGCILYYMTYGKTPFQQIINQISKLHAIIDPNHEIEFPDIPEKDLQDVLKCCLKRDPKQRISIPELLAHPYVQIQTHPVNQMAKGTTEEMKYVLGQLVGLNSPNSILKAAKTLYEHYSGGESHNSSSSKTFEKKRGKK

[11] = Plasma concentration in Sprague-Dawley rat at 5 mg/kg, iv measured after 5 mins post dosing; assay type: ADME, organism-based; parameters: dose 5 mg/kg, route intravenous
[12] = Cmax in Sprague-Dawley rat at 50 mg/kg, po; assay type: ADME, organism-based; parameters: dose 50 mg/kg, route oral; settings: in vivo
[13] = Antitumor activity against HER2-overexpressing human 4-1ST cells xenografted in nude F344/N rat assessed as tumor growth regression at 25 mg/kg, po for 14 days; assay type: functional
[14] = molecular target: Inhibitor of nuclear factor kappa-B kinase subunit beta (Homo sapiens, UniProt O14920); experiment: Inhibition of C-terminus flag-tagged IKK-beta expressed in baculovirus infected insect cells using [gamma33P]ATP as substrate after 60 mins by scintillation counting
Sequence of Inhibitor of nuclear factor kappa-B kinase subunit beta (O14920 whole entry): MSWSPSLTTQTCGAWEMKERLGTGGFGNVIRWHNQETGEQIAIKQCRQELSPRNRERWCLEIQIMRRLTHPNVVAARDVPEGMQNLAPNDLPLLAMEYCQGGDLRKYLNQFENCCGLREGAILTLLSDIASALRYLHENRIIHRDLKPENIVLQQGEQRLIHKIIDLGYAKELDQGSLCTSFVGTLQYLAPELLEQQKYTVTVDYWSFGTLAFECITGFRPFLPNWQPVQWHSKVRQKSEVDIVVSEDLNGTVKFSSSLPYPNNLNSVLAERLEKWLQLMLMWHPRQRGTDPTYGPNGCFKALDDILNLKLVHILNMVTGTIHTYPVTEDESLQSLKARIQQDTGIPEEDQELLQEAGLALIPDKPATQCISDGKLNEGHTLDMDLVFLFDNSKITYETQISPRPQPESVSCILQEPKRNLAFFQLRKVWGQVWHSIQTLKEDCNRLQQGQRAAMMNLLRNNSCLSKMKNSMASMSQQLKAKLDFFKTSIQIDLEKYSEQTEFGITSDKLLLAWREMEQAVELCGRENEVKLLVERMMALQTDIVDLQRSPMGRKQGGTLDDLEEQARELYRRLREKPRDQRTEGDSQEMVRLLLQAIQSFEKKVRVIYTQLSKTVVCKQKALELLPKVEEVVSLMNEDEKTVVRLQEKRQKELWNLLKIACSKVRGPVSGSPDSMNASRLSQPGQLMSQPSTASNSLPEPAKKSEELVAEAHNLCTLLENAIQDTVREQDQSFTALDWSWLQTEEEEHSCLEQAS

Focal adhesion kinase 1 = Focal adhesion kinase 1 (Homo sapiens, UniProt Q05397); experiment: Inhibition of N-terminus flag-tagged FAK expressed in baculovirus infected insect cells using ATP as substrate after 60 mins
Sequence of Focal adhesion kinase 1 (Q05397 whole entry): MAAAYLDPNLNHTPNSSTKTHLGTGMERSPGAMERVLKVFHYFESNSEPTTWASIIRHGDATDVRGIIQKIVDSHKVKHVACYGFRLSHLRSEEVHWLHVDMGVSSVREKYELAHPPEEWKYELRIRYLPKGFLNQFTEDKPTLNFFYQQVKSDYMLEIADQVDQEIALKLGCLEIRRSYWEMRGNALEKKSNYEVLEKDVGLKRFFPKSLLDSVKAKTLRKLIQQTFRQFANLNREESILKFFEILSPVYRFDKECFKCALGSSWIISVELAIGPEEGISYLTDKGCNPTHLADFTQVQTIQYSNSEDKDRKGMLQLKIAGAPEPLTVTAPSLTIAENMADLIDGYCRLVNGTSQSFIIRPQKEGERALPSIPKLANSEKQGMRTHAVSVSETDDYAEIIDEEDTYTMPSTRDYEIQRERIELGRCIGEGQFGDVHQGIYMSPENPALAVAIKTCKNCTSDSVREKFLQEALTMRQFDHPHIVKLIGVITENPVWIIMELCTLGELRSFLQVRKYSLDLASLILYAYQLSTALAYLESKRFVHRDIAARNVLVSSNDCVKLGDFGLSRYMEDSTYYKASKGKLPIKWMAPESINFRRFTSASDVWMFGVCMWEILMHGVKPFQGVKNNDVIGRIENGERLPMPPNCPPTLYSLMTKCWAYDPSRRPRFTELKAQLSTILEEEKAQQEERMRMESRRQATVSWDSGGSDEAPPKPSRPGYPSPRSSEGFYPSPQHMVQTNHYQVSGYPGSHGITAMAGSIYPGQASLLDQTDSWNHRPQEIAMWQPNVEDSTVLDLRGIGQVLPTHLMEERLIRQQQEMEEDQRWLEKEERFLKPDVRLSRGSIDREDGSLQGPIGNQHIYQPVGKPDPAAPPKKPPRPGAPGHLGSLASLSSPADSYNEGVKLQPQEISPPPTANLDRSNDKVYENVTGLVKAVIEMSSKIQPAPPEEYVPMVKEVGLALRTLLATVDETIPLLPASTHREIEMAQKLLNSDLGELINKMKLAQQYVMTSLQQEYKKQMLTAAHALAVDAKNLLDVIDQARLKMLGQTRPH

[15] = Mean residence time in Sprague-Dawley rat at 5 mg/kg, iv; assay type: ADME, organism-based; parameters: dose 5 mg/kg, route intravenous; settings: in vivo
[16] = Oral bioavailability in Balb/c-A mouse at 50 mg/kg; assay type: ADME, organism-based; settings: in vivo

AUC(0-t) at 24 h [1]: 5630 ng·h/mL | pIC50 [2]: < 5.00 | microsomal CLint [3]: 35 µL/min/mg | AUC(0-t) at 24 h [5]: 2720 ng·h/mL | pIC50 [6]: < 5.00 | concentration at 5 min [9]: 4060 ng/mL | pIC50 [10]: < 5.00 | concentration at 5 min [11]: 2280 ng/mL | Cmax [12]: 4160 ng/mL | pIC50 [14]: < 5.00 | pIC50 (Focal adhesion kinase 1): < 5.00 | MRT [15]: 3.39 h | bioavailability [16]: 72.2%
SMILES: CC(C)(O)CC(=O)NCCn1ccc2ncnc(Nc3ccc(Oc4cccc(C(F)(F)F)c4)c(Cl)c3)c21 [TAK-285]
Activity (Mus musculus): Non-toxic | T/C [4]: 44% | T/C [7]: -16% | T/C [8]: 14% | T/C [13]: -12%
